ChEMBL document CHEMBL4428068, “Allosteric Modulation of Phosphatase Activity May Redefine Therapeutic Value” (J Med Chem, 2016)

Biological target: T1, Tyrosine-protein phosphatase non-receptor type 11 (Homo sapiens, UniProt Q06124)
T1 sequence (Q06124 whole entry): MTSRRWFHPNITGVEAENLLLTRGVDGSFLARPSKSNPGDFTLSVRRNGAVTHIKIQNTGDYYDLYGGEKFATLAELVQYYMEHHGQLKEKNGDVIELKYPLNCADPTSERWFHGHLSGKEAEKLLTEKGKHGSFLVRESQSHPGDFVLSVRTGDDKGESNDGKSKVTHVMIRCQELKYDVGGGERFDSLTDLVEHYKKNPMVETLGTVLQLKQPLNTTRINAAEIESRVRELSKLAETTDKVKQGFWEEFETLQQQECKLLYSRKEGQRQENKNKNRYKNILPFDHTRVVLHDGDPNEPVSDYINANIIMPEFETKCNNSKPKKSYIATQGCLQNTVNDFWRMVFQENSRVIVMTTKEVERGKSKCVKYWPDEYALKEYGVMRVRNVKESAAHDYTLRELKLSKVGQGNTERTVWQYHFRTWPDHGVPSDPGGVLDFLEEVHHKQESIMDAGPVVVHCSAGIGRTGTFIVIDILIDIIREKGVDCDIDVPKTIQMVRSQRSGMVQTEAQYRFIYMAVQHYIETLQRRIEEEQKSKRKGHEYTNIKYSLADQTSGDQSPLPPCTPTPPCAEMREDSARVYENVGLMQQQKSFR
Assay: Negative allosteric modulator activity at SHP2 (unknown origin)

- IC50: 12 µM
Structure (SMILES): C[C@@H]1CN(c2ncc(-c3cccc(Cl)c3Cl)c(N)n2)C[C@H](C)N1
